# Data published in patent US20110274697A1, “NOVEL USES” (priority 2009, published 2011).
# Columns and labels:
# [1] = test system: cells with low CD20 density; details: compared to rituximab; especially in cells with low CD20 density, as in CLL; cited from earlier work
# CD20 on JVM-3 cells = target: T1, CD20 on JVM-3 cells (Homo sapiens, UniProt P11836); assay: FACS binding of fluorescently labeled anti-CD20 antibodies to JVM-3 cells; details: fluorescently labeled antibody, BD FACSCanto, FIG. 2
# T1 construct: medium level expression profile of CD20 on JVM-3 cells; endogenous in cells; host or cells: JVM-3 cells
# T1 sequence (P11836 1-297): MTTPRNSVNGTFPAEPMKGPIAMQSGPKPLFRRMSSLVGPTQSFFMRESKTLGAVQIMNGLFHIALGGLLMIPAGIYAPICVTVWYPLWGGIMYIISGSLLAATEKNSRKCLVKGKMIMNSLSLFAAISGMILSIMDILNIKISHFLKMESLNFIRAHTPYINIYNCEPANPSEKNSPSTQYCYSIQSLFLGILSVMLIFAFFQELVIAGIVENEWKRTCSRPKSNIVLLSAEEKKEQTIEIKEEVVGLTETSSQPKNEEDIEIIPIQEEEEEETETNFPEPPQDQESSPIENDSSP
# Experimental: One microgram of each antibody was prepared in PBS and five microliters of the Zenon human IgG labeling reagent (Component A) was added to the antibody solution. The mixture was incubated for five minutes at room temperature and then five microliters of the Zenon blocking reagent (Component B) was added to the reaction mixture. After another five minutes at room temperature the complexes were ready to be used. 5×10^6 cells/ml of viable JVM-3 cells were resuspended in PBS. 100 ul of the cells were added to each tube. 10 ul of human IgG was added to block non-specific binding. The cells and human IgG were incubated for 10 minutes. […] The mixture was incubated for an additional 30 minutes on ice in the dark. Then 500 ul of PBS was added to the cells and they were centrifuged for 5 minutes at 1000 rpm. The supernatant was removed and 500 ul of PBS was added and the cells were centrifuged again. Again the supernatant was removed and the cells resuspended in 300 ul of PBS. The cells were analyzed on a BD FACSCanto.
substance,measurement,setting,value
"ofatumumab: new generation, human monoclonal antibody that targets a membrane proximal, small loop epitope of the CD20 molecule; 2F2 antibody in WO2004/035607",induction of tumor cell lysis by CDC activity,[1],superior induction of tumor cell lysis by CDC
same,receptor bound on the cell surface,CD20 on JVM-3 cells,bound more receptors on the cell surface than rituxan antibody did
